A short description of data set [1]: Equieffective molar ratio is ratio of the concentration of the test compound and dequalinium that cause 50% inhibition of AHP.
The species entered for data set [2] is Rattus norvegicus. Briefly: tested for their ability to inhibit the after- hyperpolarization in cultured rat sympathetic neurons. The format is functional, Sympathetic neuron.
The species entered for data set [3] is Rattus norvegicus. Briefly: tested for their ability to inhibit the after- hyperpolarization in cultured rat sympathetic neurons (omitting the comparison with dequalinium). The format is functional. Conditions: Sympathetic neuron.
The species entered for data set [4] is Rattus norvegicus. Briefly: tested for their ability to inhibit the after- hyperpolarization (AHP) in cultured rat sympathetic neurons. The format is functional. The note with it: Sympathetic neuron.
Where [5] appears, read: Rattus norvegicus, Sympathetic neuron.

Each structure is given as a SMILES string.

For the molecule `[I-].[I-].c1ccc2c(c1)c1cc[n+]2CCCCCC[n+]2ccc(c3ccccc32)NCCCCCCN1`, the EMR in data set [1] is 0.1. In the data set filed under Rattus norvegicus [2] (setting [5]), the IC50 was 60 nM.
As for `[I-].[I-].c1ccc2c(c1)c1cc[n+]2CCCC[n+]2ccc(c3ccccc32)NCCCCN1`, the EMR in data set [1] came out at 0.09. Moreover, the IC50 in the data set listed under Rattus norvegicus [2] (setting [5]) worked out at 40 nM.
`[I-].[I-].c1ccc2c(c1)c1cc[n+]2CCCCCCCCCC[n+]2ccc(c3ccccc32)NCCCCCCCCCCN1`: in data set [1], the EMR was found to be 0.44. Further, the IC50 in the data set listed under Rattus norvegicus [2] (setting [5]) worked out at 260 nM.
As to `c1cc2cc(c1)C[n+]1ccc(c3ccccc31)NCc1ccc(cc1)CNc1cc[n+](c3ccccc13)C2`, in data set [1], the EMR was found to be 0.01.
`[I-].[I-].c1ccc2c(c1)c1cc[n+]2CCCCCCCC[n+]2ccc(c3ccccc32)NCCCCCCCCN1`: in data set [1], the EMR is 0.43. This molecule also gave an IC50 in the data set filed under Rattus norvegicus [2] (setting [5]) of 190 nM.
Take `[I-].[I-].c1ccc2c(c1)c1cc[n+]2CCCCC[n+]2ccc(c3ccccc32)NCCCCCN1`: the EMR in data set [1] came to 0.003. Besides, the half-inhibitory concentration (IC50) in the data set listed under Rattus norvegicus [3] was found to be 2.7 nM; in the data set listed under Rattus norvegicus [2] (setting [5]), 2 nM.
In the case of `[I-].[I-].c1ccc2c(c1)c1cc[n+]2CCC[n+]2ccc(c3ccccc32)NCCCN1` (stereo in doubt; form 1), the EMR in data set [1] was found to be 0.27. In addition, in the data set listed under Rattus norvegicus [2] (sympathetic neuron), the concentration for half-maximal inhibition (IC50) was determined as 130 nM.
On the same counts, the results for `[I-].[I-].c1ccc2c(c1)c1cc[n+]2CCC[n+]2ccc(c3ccccc32)NCCCN1` (stereo in doubt; form 2) are 0.77 and 380 nM.
On to `Cc1cc(N)c2ccccc2[n+]1CCCCCCCCCC[n+]1c(C)cc(N)c2ccccc21.[Cl-].[Cl-]` [DEQUALINIUM CHLORIDE], for which, in data set [1], the EMR is reported as 1. This molecule gave an IC50 in the data set filed under Rattus norvegicus [4] of 490 nM.

As usually defined, the IC50 is the midpoint of a concentration-inhibition curve.

The values are drawn from ChEMBL document CHEMBL1133110, “bis-Quinolinium cyclophanes: 8,14-diaza-1,7(1, 4)-diquinolinacyclotetradecaphane (UCL 1848), a highly potent and selective, nonpeptidic blocker of the apamin-sensitive Ca(2+)-activated K(+) channel” (J Med Chem, 2000).
